Laboratory results published in US20060194766A1, “Combinations comprising anti-epileptic drugs for the treatment of neurological disorders” (priority 2003, published 2006).

System: MES-induced seizures
Test: Maximal electroshock test (MES)-induced seizures in mice
Format: in vivo
Conditions: for % animals protected from seizures: pre-treatment 1 h
Method: Generalized tonic-clonic seizures are induced in mice by a maximal electroshock test (MES). In brief, seizures of the hind extremities of male Tif: MAGf (SPF) mice (19-25 g) are induced by passing alternating electrical current (50 Hz, 18 mA, 0.2 s) through temporal electrodes. The compounds and carbamazepine are suspended in 0.5% methyl cellulose for p.o. administration (doses for the compounds: 3.125, 6.25, 12.5 and 20.0 mg/kg p.o). The pre-treatment period for all compounds is 1 h. Ten animals per dose are used. For each experiment one group serves as a negative control (placebo). The number of animals protected from tonic hind limb extension seizure is determined in each dose and combination group.

For NC(=O)N1c2ccccc2C=Cc2ccccc21 [Carbamazepine], the “% animals protected from seizures” value (Carbamazepine 7.5 mg/kg combined with Compound 1, 3.125 mg/kg p.o.) was 40%, the “% animals protected from seizures” value (Carbamazepine 7.5 mg/kg p.o. combined with placebo) was 0% and the “% animals protected from seizures” value (Carbamazepine 12.5 mg/kg combined with Compound 1, 3.125 mg/kg p.o.) was 80%. For the same compound, the “% animals protected from seizures” value (Carbamazepine 12.5 mg/kg combined with Compound 1, 6.25 mg/kg p.o.) was 90%, the “% animals protected from seizures” value (Carbamazepine 20.0 mg/kg combined with Compound 1, 6.25 mg/kg p.o.) was 100% and the “% animals protected from seizures” value (Carbamazepine 20.0 mg/kg p.o. combined with placebo) was 80%. For the same compound, the “% of the mice protected” value (carbamazepine combined with placebo, doses of 7.5 to 20.0 mg/kg p.o.) was “up to 80%”.
